Experiment: Sensory evaluation of Vermont drink containing the agent
Settings: ten panels
How it was run: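 Tridecadienal or tridecatrienal isomers added at various concentrations to a Vermont-flavoured drink (apple-cider vinegar, honey, liquid sugar, citric acid, trisodium citrate, 100 mL total). Ten panelists assessed acid taste/acid smell and aldehyde-type off-odour, and the concentration giving the best acid taste/smell quality was selected.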

## CCCCC/C=C\C/C=C/CCC=O [(E,Z)-4,7-tridecadienal]
0.005 ppt
  A: number of panels, acid taste/acid smell extreme and cause irritation: 10
  B: number of panels, acid taste/acid smell slightly strong and slightly cause irritation: 0
  C: number of panels, acid taste/acid smell slightly unpleasant: 0
  Flavor judgment: number of panels who judged acid taste/acid smell quality the highest: 0
  N: number of panels, irritation of acid reduced to give a mild acid taste: 0
  X: number of panels, acid taste reduced but piercing odor characteristic to aldehydes unpleasant: 0
0.02 ppt
  A: number of panels, acid taste/acid smell extreme and cause irritation: 10
  B: number of panels, acid taste/acid smell slightly strong and slightly cause irritation: 0
  C: number of panels, acid taste/acid smell slightly unpleasant: 0
  Flavor judgment: number of panels who judged acid taste/acid smell quality the highest: 0
  N: number of panels, irritation of acid reduced to give a mild acid taste: 0
  X: number of panels, acid taste reduced but piercing odor characteristic to aldehydes unpleasant: 0
0.1 ppt
  A: number of panels, acid taste/acid smell extreme and cause irritation: 10
  B: number of panels, acid taste/acid smell slightly strong and slightly cause irritation: 0
  C: number of panels, acid taste/acid smell slightly unpleasant: 0
  Flavor judgment: number of panels who judged acid taste/acid smell quality the highest: 0
  N: number of panels, irritation of acid reduced to give a mild acid taste: 0
  X: number of panels, acid taste reduced but piercing odor characteristic to aldehydes unpleasant: 0
0.2 ppt
  A: number of panels, acid taste/acid smell extreme and cause irritation: 8
  B: number of panels, acid taste/acid smell slightly strong and slightly cause irritation: 2
  C: number of panels, acid taste/acid smell slightly unpleasant: 0
  Flavor judgment: number of panels who judged acid taste/acid smell quality the highest: 0
  N: number of panels, irritation of acid reduced to give a mild acid taste: 0
  X: number of panels, acid taste reduced but piercing odor characteristic to aldehydes unpleasant: 0
0.5 ppt
  A: number of panels, acid taste/acid smell extreme and cause irritation: 6
  B: number of panels, acid taste/acid smell slightly strong and slightly cause irritation: 3
  C: number of panels, acid taste/acid smell slightly unpleasant: 1
  Flavor judgment: number of panels who judged acid taste/acid smell quality the highest: 0
  N: number of panels, irritation of acid reduced to give a mild acid taste: 0
  X: number of panels, acid taste reduced but piercing odor characteristic to aldehydes unpleasant: 0
1 ppb
  A: number of panels, acid taste/acid smell extreme and cause irritation: 0
  B: number of panels, acid taste/acid smell slightly strong and slightly cause irritation: 0
  C: number of panels, acid taste/acid smell slightly unpleasant: 2
  Flavor judgment: number of panels who judged acid taste/acid smell quality the highest: 0
  N: number of panels, irritation of acid reduced to give a mild acid taste: 4
  X: number of panels, acid taste reduced but piercing odor characteristic to aldehydes unpleasant: 4
1 ppt
  A: number of panels, acid taste/acid smell extreme and cause irritation: 0
  B: number of panels, acid taste/acid smell slightly strong and slightly cause irritation: 4
  C: number of panels, acid taste/acid smell slightly unpleasant: 5
  Flavor judgment: number of panels who judged acid taste/acid smell quality the highest: 0
  N: number of panels, irritation of acid reduced to give a mild acid taste: 1
  X: number of panels, acid taste reduced but piercing odor characteristic to aldehydes unpleasant: 0
5 ppt
  A: number of panels, acid taste/acid smell extreme and cause irritation: 0
  B: number of panels, acid taste/acid smell slightly strong and slightly cause irritation: 1
  C: number of panels, acid taste/acid smell slightly unpleasant: 3
  Flavor judgment: number of panels who judged acid taste/acid smell quality the highest: 4
  N: number of panels, irritation of acid reduced to give a mild acid taste: 6
  X: number of panels, acid taste reduced but piercing odor characteristic to aldehydes unpleasant: 0
10 ppb
  A: number of panels, acid taste/acid smell extreme and cause irritation: 0
  B: number of panels, acid taste/acid smell slightly strong and slightly cause irritation: 0
  C: number of panels, acid taste/acid smell slightly unpleasant: 2
  Flavor judgment: number of panels who judged acid taste/acid smell quality the highest: 0
  N: number of panels, irritation of acid reduced to give a mild acid taste: 4
  X: number of panels, acid taste reduced but piercing odor characteristic to aldehydes unpleasant: 4
20 ppt
  A: number of panels, acid taste/acid smell extreme and cause irritation: 0
  B: number of panels, acid taste/acid smell slightly strong and slightly cause irritation: 0
  C: number of panels, acid taste/acid smell slightly unpleasant: 2
  Flavor judgment: number of panels who judged acid taste/acid smell quality the highest: 3
  N: number of panels, irritation of acid reduced to give a mild acid taste: 8
  X: number of panels, acid taste reduced but piercing odor characteristic to aldehydes unpleasant: 0
50 ppb
  A: number of panels, acid taste/acid smell extreme and cause irritation: 0
  B: number of panels, acid taste/acid smell slightly strong and slightly cause irritation: 0
  C: number of panels, acid taste/acid smell slightly unpleasant: 0
  Flavor judgment: number of panels who judged acid taste/acid smell quality the highest: 0
  N: number of panels, irritation of acid reduced to give a mild acid taste: 2
  X: number of panels, acid taste reduced but piercing odor characteristic to aldehydes unpleasant: 8
100 ppt
  A: number of panels, acid taste/acid smell extreme and cause irritation: 0
  B: number of panels, acid taste/acid smell slightly strong and slightly cause irritation: 1
  C: number of panels, acid taste/acid smell slightly unpleasant: 2
  Flavor judgment: number of panels who judged acid taste/acid smell quality the highest: 3
  N: number of panels, irritation of acid reduced to give a mild acid taste: 7
  X: number of panels, acid taste reduced but piercing odor characteristic to aldehydes unpleasant: 0
500 ppt
  A: number of panels, acid taste/acid smell extreme and cause irritation: 0
  B: number of panels, acid taste/acid smell slightly strong and slightly cause irritation: 1
  C: number of panels, acid taste/acid smell slightly unpleasant: 3
  Flavor judgment: number of panels who judged acid taste/acid smell quality the highest: 0
  N: number of panels, irritation of acid reduced to give a mild acid taste: 4
  X: number of panels, acid taste reduced but piercing odor characteristic to aldehydes unpleasant: 2
